Literature values as cited in patent US20260048005A1, “INJECTABLE THERMOSENSITIVE HYDROGELS FOR A SUSTAINED RELEASE OF IRON NANOCHELATORS” (The General Hospital Corporation, priority 2022, published 2026).

Conditions: in rodents

CC(=O)N(O)CCCCCNC(=O)CCC(=O)N(O)CCCCCNC(=O)CCC(=O)N(O)CCCCCN [DFO, deferoxamine]
half-life: 5 to 15 min
